The supplement of paper PMC5908809

Assays:
[1] = test system: normal NK cells expanded with K562-aAPC; test: percent inhibition of viability; higher = more inhibition; conditions: 72 h, IL-2 2.5 ng/mL
Experimental: (§1)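 Drug sensitivity and resistance testing on K562-aAPC-expanded normal NK cells: 5 concentrations (10-fold steps over a 10,000-fold range), 72 h at 37 °C, viability by CellTiter-Glo normalised to DMSO and benzethonium chloride controls; DSS from the fitted curve.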

DERL-7 (IL-2 2.5 ng/mL) [2] = test: as above; conditions: 72 h
IMC-1 (IL-2 20 ng/mL) [3] = test: as above; conditions: 72 h
KAI3 (IL-2 2.5 ng/mL) [4] = test: as above; conditions: 72 h
KHYG-1 (IL-2 2.5 ng/mL) [5] = test: as above; conditions: 72 h
NK-92 (IL-2 2.5 ng/mL) [6] = test: as above; conditions: 72 h
NK-YS (IL-2 2.5 ng/mL) [7] = test: as above; conditions: 72 h
NKL (IL-2 2.5 ng/mL) [8] = test: as above; conditions: 72 h
SNK-6 (IL-2 2.5 ng/mL) [9] = test: as above; conditions: 72 h
YT (IL-2 2.5 ng/mL) [10] = test: as above; conditions: 72 h
[11] = test system: normal primary NK cells, pool 1 (3 donors) (IL-2 2.5 ng/mL); test: as above; conditions: 72 h
[12] = test system: normal primary NK cells, pool 1 (3 donors), resting (IL-2 0 ng/mL); test: as above; conditions: 72 h
[13] = test system: normal primary NK cells, pool 2 (3 donors) (IL-2 2.5 ng/mL); test: as above; conditions: 72 h
[14] = test system: normal primary NK cells, pool 3 (3 donors) (IL-2 2.5 ng/mL); test: as above; conditions: 72 h
[15] = test system: normal NK cells expanded with K562-aAPC; test: drug sensitivity score (DSS) (DSS units); higher = more sensitive; extreme values may be limits of the assay; conditions: 72 h; IL-2 2.5 ng/mL
Experimental: as §1

DERL-7 (IL-2 2.5 ng/mL) [16] = test: as above; conditions: 72 h
IMC-1 (IL-2 20 ng/mL) [17] = test: as above; conditions: 72 h
KAI3 (IL-2 2.5 ng/mL) [18] = test: as above; conditions: 72 h
KHYG-1 (IL-2 2.5 ng/mL) [19] = test: as above; conditions: 72 h
NK-92 (IL-2 2.5 ng/mL) [20] = test: as above; conditions: 72 h
NK-YS (IL-2 2.5 ng/mL) [21] = test: as above; conditions: 72 h
NKL (IL-2 2.5 ng/mL) [22] = test: as above; conditions: 72 h
SNK-6 (IL-2 2.5 ng/mL) [23] = test: as above; conditions: 72 h
YT (IL-2 2.5 ng/mL) [24] = test: as above; conditions: 72 h
[25] = test system: normal primary NK cells, pool 1 (3 donors) (IL-2 2.5 ng/mL); test: as above; conditions: 72 h
[26] = test system: normal primary NK cells, pool 1 (3 donors), resting (IL-2 0 ng/mL); test: as above; conditions: 72 h
[27] = test system: normal primary NK cells, pool 2 (3 donors) (IL-2 2.5 ng/mL); test: as above; conditions: 72 h
[28] = test system: normal primary NK cells, pool 3 (3 donors) (IL-2 2.5 ng/mL); test: as above; conditions: 72 h

CC[C@@H]1C(=O)N(C)c2cnc(Nc3ccc(C(=O)N[C@H]4CC[C@H](N5CCN(CC6CC6)CC5)CC4)cc3OC)nc2N1C(C)C [Volasertib] (max concentration tested 1000 nM)
percent inhibition of viability [%]
Conditions | 0.1 nM | 1 nM | 10 nM | 100 nM | 1000 nM
DERL-7 (IL-2 2.5 ng/mL) [2] | 6.13 | 1.89 | 15.1 | 98.3 | 95
IMC-1 (IL-2 20 ng/mL) [3] | -3.21 | -4.2 | 2.24 | 94 | 93.2
KAI3 (IL-2 2.5 ng/mL) [4] | 2.62 | 2.62 | 15 | 38.7 | 51.1
KHYG-1 (IL-2 2.5 ng/mL) [5] | -0.67 | -1.62 | 4.85 | 98.4 | 99.2
NK-92 (IL-2 2.5 ng/mL) [6] | -14.8 | -9.97 | 33.1 | 92 | 82.6
NK-YS (IL-2 2.5 ng/mL) [7] | -1.3 | 1.64 | 5.27 | 59 | 51
NKL (IL-2 2.5 ng/mL) [8] | -8.73 | -9.25 | -5.94 | 65.4 | 40.5
SNK-6 (IL-2 2.5 ng/mL) [9] | 8.84 | 8.4 | 39 | 65.5 | 42.1
YT (IL-2 2.5 ng/mL) [10] | -2.13 | 1.45 | 2.63 | 73.9 | 70.2
[1] | 0.48 | -0.94 | -1.6 | 54.3 | 54.2
[11] | -2.22 | -7 | -3.63 | -0.83 | 28.3
[12] | 8.74 | -8.57 | -4.01 | 0.78 | 16
[13] | -9.16 | -9.48 | -8.67 | -4.83 | 38.6
[14] | -12.7 | -9.54 | -12.6 | -7.36 | 8.33

Conditions | drug sensitivity score
DERL-7 (IL-2 2.5 ng/mL) [16] | 20.2
IMC-1 (IL-2 20 ng/mL) [17] | 17.2
KAI3 (IL-2 2.5 ng/mL) [18] | 8.7
KHYG-1 (IL-2 2.5 ng/mL) [19] | 18.4
NK-92 (IL-2 2.5 ng/mL) [20] | 21.2
NK-YS (IL-2 2.5 ng/mL) [21] | 11.7
NKL (IL-2 2.5 ng/mL) [22] | 11.5
SNK-6 (IL-2 2.5 ng/mL) [23] | 16.3
YT (IL-2 2.5 ng/mL) [24] | 13.8
[15] | 9.75
[25] | 1.12
[26] | 0.37
[27] | 1.57
[28] | 0

Cc1c(C(=O)Nc2ccc(N3C[C@@H](C)O[C@@H](C)C3)nc2)cccc1-c1ccc(OC(F)(F)F)cc1 [Sonidegib] (max concentration tested 10000 nM)
percent inhibition of viability [%]
Conditions | 1 nM | 10 nM | 100 nM | 1000 nM | 10000 nM
DERL-7 (IL-2 2.5 ng/mL) [2] | -6.39 | 0.97 | 3.22 | 7.44 | 7.71
IMC-1 (IL-2 20 ng/mL) [3] | -2.05 | 0.95 | 10.7 | 7.33 | 66.2
KAI3 (IL-2 2.5 ng/mL) [4] | -9.76 | 2.17 | -0.83 | -2.67 | 26.2
KHYG-1 (IL-2 2.5 ng/mL) [5] | 1.09 | -0.52 | 4.83 | 5.39 | 33.4
NK-92 (IL-2 2.5 ng/mL) [6] | 5.8 | 1.52 | 11.2 | 33.5 | 79.3
NK-YS (IL-2 2.5 ng/mL) [7] | -0.38 | 2.73 | 7.41 | 11.1 | 31.1
NKL (IL-2 2.5 ng/mL) [8] | -6.67 | 3.73 | -0.64 | 6.28 | 26.8
SNK-6 (IL-2 2.5 ng/mL) [9] | 4.68 | 24.7 | 23.1 | 15.3 | 25.6
YT (IL-2 2.5 ng/mL) [10] | 1.1 | 5.23 | 7.91 | 6.65 | 37
[1] | -1.35 | -1.33 | -0.97 | 6.62 | 11.9
[11] | 2.22 | -1.01 | 1.87 | -6.02 | -0.78
[12] | 7.84 | -5.48 | 2.43 | -23.8 | -13.6
[13] | -5.58 | -3.94 | 1.51 | -3.08 | -2.7
[14] | -16.4 | -5.96 | 3.9 | -2.57 | -0.38

Conditions | drug sensitivity score
DERL-7 (IL-2 2.5 ng/mL) [16] | 0
IMC-1 (IL-2 20 ng/mL) [17] | 4.85
KAI3 (IL-2 2.5 ng/mL) [18] | 0.87
KHYG-1 (IL-2 2.5 ng/mL) [19] | 2.43
NK-92 (IL-2 2.5 ng/mL) [20] | 8.23
NK-YS (IL-2 2.5 ng/mL) [21] | 2.3
NKL (IL-2 2.5 ng/mL) [22] | 2.01
SNK-6 (IL-2 2.5 ng/mL) [23] | 10.6
YT (IL-2 2.5 ng/mL) [24] | 2.89
[15] | 0.28
[25] | 0
[26] | 0
[27] | 0
[28] | 0
